Measured values from the supplement of paper PMC10307832.

Legend:
Test in all cases: relative viability (nuclei count vs DMSO), 5 days (fraction); higher = more cells survive
Cediranib + Trametinib = compound: COc1cc2c(Oc3ccc4[nH]c(C)cc4c3F)ncnc2cc1OCCCN1CCCC1 [Cediranib] + CC(=O)Nc1cccc(-n2c(=O)n(C3CC3)c(=O)c3c(Nc4ccc(I)cc4F)n(C)c(=O)c(C)c32)c1 [Trametinib] (partner 0.02 µM)
Outline: (§1)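 After 5 days of treatment, lung cancer cells in 1536-well plates were fixed and stained in a single step (final 0.05% Triton X-100, 1% formaldehyde, 1 ug/ml Hoechst) and their nuclei counted on 4× images. Treatment had been applied by pin tool the day after seeding as one drug alone or as a fixed anchor-drug dose with five library-drug doses (not always all listed) in √10 steps. Relative viability is the nuclei count of treated wells divided by that of vehicle wells, and values are medians of duplicate plates.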

Cediranib + Lapatinib = compound: COc1cc2c(Oc3ccc4[nH]c(C)cc4c3F)ncnc2cc1OCCCN1CCCC1 [Cediranib] + CS(=O)(=O)CCNCc1ccc(-c2ccc3ncnc(Nc4ccc(OCc5cccc(F)c5)c(Cl)c4)c3c2)o1 [Lapatinib] (partner 2 µM)
Outline: as §1

Decitabine + Foretinib = compound: Nc1ncn([C@H]2C[C@H](O)[C@@H](CO)O2)c(=O)n1 [Decitabine] + COc1cc2c(Oc3ccc(NC(=O)C4(C(=O)Nc5ccc(F)cc5)CC4)cc3F)ccnc2cc1OCCCN1CCOCC1 [Foretinib] (partner 0.25 µM)
Outline: as §1

Decitabine + Lapatinib = compound: Nc1ncn([C@H]2C[C@H](O)[C@@H](CO)O2)c(=O)n1 [Decitabine] + CS(=O)(=O)CCNCc1ccc(-c2ccc3ncnc(Nc4ccc(OCc5cccc(F)c5)c(Cl)c4)c3c2)o1 [Lapatinib] (partner 2 µM)
Outline: as §1

Q: Which relative viability (Cediranib + Trametinib; first compound 0.04 µM) does the source give for UMC-11 here?
A: 0.684

Q: And the relative viability (Cediranib + Trametinib; first compound 0.1265 µM)?
A: 0.234

Q: And the relative viability (Cediranib + Trametinib; first compound 0.4 µM)?
A: 0.586

Q: What about the relative viability (Cediranib + Trametinib; first compound 1.265 µM) of the same cell line?
A: 0.394

Q: What about the relative viability (Cediranib + Trametinib; first compound 4 µM) of the same cell line?
A: 0.721

Q: What about the relative viability (Cediranib + Lapatinib; first compound 0.04 µM) of the same cell line?
A: 1.07

Q: And the relative viability (Cediranib + Lapatinib; first compound 0.1265 µM)?
A: 0.48

Q: What about the relative viability (Cediranib + Lapatinib; first compound 0.4 µM) of the same cell line?
A: 0.938

Q: What about the relative viability (Cediranib + Lapatinib; first compound 1.265 µM) of the same cell line?
A: 0.525

Q: What about the relative viability (Cediranib + Lapatinib; first compound 4 µM) of the same cell line?
A: 0.963

Q: And the relative viability (Decitabine + Foretinib; first compound 0.04 µM)?
A: 0.906

Q: And the relative viability (Decitabine + Foretinib; first compound 0.1265 µM)?
A: 0.79

Q: What about the relative viability (Decitabine + Foretinib; first compound 0.4 µM) of the same cell line?
A: 0.511

Q: What about the relative viability (Decitabine + Foretinib; first compound 1.265 µM) of the same cell line?
A: 0.399

Q: What about the relative viability (Decitabine + Foretinib; first compound 4 µM) of the same cell line?
A: 0.372

Q: And the relative viability (Decitabine + Lapatinib; first compound 0.04 µM)?
A: 0.877

Q: What about the relative viability (Decitabine + Lapatinib; first compound 0.1265 µM) of the same cell line?
A: 0.832

Q: And the relative viability (Decitabine + Lapatinib; first compound 0.4 µM)?
A: 0.434

Q: And the relative viability (Decitabine + Lapatinib; first compound 1.265 µM)?
A: 0.357

Q: And the relative viability (Decitabine + Lapatinib; first compound 4 µM)?
A: 0.346
